Experimental data from ChEMBL document CHEMBL1138438, “Structural-activity relationship study of highly-functionalized imidazolines as potent inhibitors of nuclear transcription factor-kappaB mediated IL-6 production” (Bioorg Med Chem, 2009).
pEC50, pIC50: −log10 of the molar value. Active and inactive are the calls of the source. The rule behind the calls is not given here.

Experiments:
[1] = Inhibition of NF-kappaB-mediated gene transcription expressed in TNF-alpha-stimulated human HeLa cells for 30 mins before TNFalpha challenge measured after 8 hrs by steady-glo luciferase reporter gene assay; format: cell-based
[2] = test system: Blood; assay: Antiinflammatory activity in human whole blood assessed as inhibition of IL-1-beta-stimulated IL6 production preincubated 2 hrs before IL1-beta challenge measured after 18 hrs by ELISA; format: functional, tissue-based; details: for pIC50: read-out: IC50; for IC50: read-out: Log IC50 (converted)
[3] = test system: HeLa; assay: Stimulation of NF-kappaB-mediated gene transcription expressed in human HeLa cells for 30 mins before TNFalpha challenge measured after 8 hrs by steady-glo luciferase reporter gene assay; format: cell-based
[4] = Cytotoxicity against human 184B5 cells after 24 hrs by MTS assay; format: cell-based

Row | SMILES | pEC50 [1] | Activity [2] | pIC50 [2] | IC50 [2] | Activity [3] | CC50 at 24 h [4]
1 | CCOC(=O)[C@]1(c2ccccc2)N=C(c2ccccc2)N(C(=O)c2ccccc2)[C@@H]1c1ccccc1 (racemic) | 4.60 | Dose-dependent effect | 5.18 | 6.61 µM | inactive | > 10 µM
2 | CCCOC(=O)[C@]1(c2ccccc2)N=C(c2ccccc2)N(Cc2ccccc2)[C@@H]1c1ccccc1 (racemic) | 5.64 | Dose-dependent effect | 5.72 | 1.95 µM | inactive | > 10 µM
3 | CCOC(=O)[C@]1(c2ccccc2)N=C(c2ccccc2)N[C@@H]1c1ccccc1 (racemic) | 3.93 | Dose-dependent effect | < 4.70 | 34.7 µM | inactive | > 10 µM
4 | CCOC(=O)[C@]1(c2ccccc2)N=C(c2ccccc2)N(Cc2ccc(OC)cc2)[C@@H]1c1ccccc1 (racemic) | 5.30 | Dose-dependent effect | 5.85 | 1.38 µM | inactive | > 10 µM
5 | O=C(OCc1ccccc1)[C@]1(c2ccccc2)N=C(c2ccccc2)N(Cc2ccccc2)[C@@H]1c1ccccc1 (racemic) | 5.46 | Dose-dependent effect | 5.23 | 5.89 µM | inactive | > 10 µM
6 | CCOC(=O)[C@]1(c2ccccc2)N=C(c2ccccc2)N(S(=O)(=O)c2ccc(C)cc2)[C@@H]1c1ccccc1 (racemic) | 4.44 | Dose-dependent effect | 5.18 | 6.61 µM | inactive | > 10 µM
7 | COC(=O)[C@]1(C)N=C(c2ccccc2)N(Cc2ccccc2)[C@@H]1c1ccccc1 (racemic) | < 4.70 | Dose-dependent effect | 5.52 | 2.95 µM | inactive | > 10 µM
8 | NC(=O)[C@]1(c2ccccc2)N=C(c2ccccc2)N(Cc2ccccc2)[C@@H]1c1ccccc1 (racemic) | < 4.70 | Dose-dependent effect | < 4.70 | 46.8 µM | inactive | > 10 µM
9 | CCOC(=O)[C@]1(c2ccccc2)N=C(c2ccccc2)N(Cc2ccc(C)cc2)[C@@H]1c1ccccc1 (racemic) | 5.77 | Dose-dependent effect | 5.34 | 4.57 µM | inactive | > 10 µM
10 | COC(=O)[C@]1(C(C)C)N=C(c2ccccc2)N(Cc2ccccc2)[C@@H]1c1ccccc1 (racemic) | 4.70 | Dose-dependent effect | 5.15 | 7.08 µM | inactive | > 10 µM
11 | CCOC(=O)[C@]1(c2ccccc2)N=C(c2ccccc2)N(Cc2ccccc2)[C@@H]1c1ccc(Cl)cc1 (racemic) | 5.82 | Dose-dependent effect | 6.52 | 0.0617 µM | inactive | > 10 µM
12 | CCOC(=O)[C@]1(c2ccccc2)N=C(c2ccccc2)N(Cc2ccccc2)[C@@H]1c1ccc(N)cc1 (racemic) | 4.98 | Dose-dependent effect | 6.30 | 0.457 µM | inactive | > 10 µM
13 | COC(=O)[C@]1(c2ccccc2)N=C(c2ccccc2)N(Cc2ccccc2)[C@@H]1c1ccccc1 (racemic) | 5.12 | Dose-dependent effect | 5.52 | 3.02 µM | inactive | > 10 µM
14 | CCOC(=O)[C@]1(c2ccccc2)N=C(c2ccccc2)N(Cc2ccccc2)[C@@H]1c1ccc(OC)cc1 (racemic) | 5.44 | Dose-dependent effect | 5.89 | 1.29 µM | inactive | > 10 µM
15 | CCOC(=O)[C@]1(c2ccccc2)N=C(c2ccccc2)N(Cc2ccc(C(F)(F)F)cc2)[C@@H]1c1ccccc1 (racemic) | 5.17 | Dose-dependent effect | 5.82 | 1.48 µM | inactive | > 10 µM
16 | CCOC(=O)[C@]1(c2ccccc2)N=C(c2ccccc2)N(Cc2ccccc2)[C@@H]1c1ccncc1 (racemic) | < 4.70 | Dose-dependent effect | 5.03 | 9.33 µM | inactive | > 10 µM
17 | CCOC(=O)[C@]1(c2ccccc2)N=C(c2ccccc2)N(Cc2ccco2)[C@@H]1c1ccccc1 (racemic) | 5.26 | Dose-dependent effect | 5.89 | 1.29 µM | inactive | > 10 µM
18 | CCOC(=O)[C@]1(c2ccccc2)N=C(c2ccccc2)N(Cc2ccc(F)cc2)[C@@H]1c1ccccc1 (racemic) | 5.28 | Dose-dependent effect | 5.92 | 1.2 µM | inactive | > 10 µM
19 | CCOC(=O)[C@]1(c2ccccc2)N=C(c2ccccc2)N(Cc2ccccc2)[C@@H]1c1ccco1 (racemic) | 5.12 | Dose-dependent effect | 5.72 | 1.91 µM | inactive | > 10 µM
20 | CCOC(=O)[C@]1(c2ccccc2)N=C(c2ccccc2)N(C(C)=O)[C@@H]1c1ccccc1 (racemic) | 3.78 | Dose-dependent effect | < 4.70 | – | inactive | > 10 µM
21 | CCOC(=O)[C@]1(c2ccccc2)N=C(c2ccccc2)N(Cc2ccccc2)[C@@H]1c1ccc(C(F)(F)F)cc1 (racemic) | 5.85 | Dose-dependent effect | 6.10 | 0.851 µM | inactive | > 10 µM
22 | CCOC(=O)[C@]1(c2ccccc2)N=C(c2ccccc2)N(Cc2ccc(Cl)cc2)[C@@H]1c1ccccc1 (racemic) | 5.38 | Dose-dependent effect | 5.80 | 1.58 µM | inactive | > 10 µM
23 | CCOC(=O)[C@]1(c2ccccc2)N=C(c2ccccc2)N(Cc2ccc(Br)cc2)[C@@H]1c1ccccc1 (racemic) | 5.57 | Dose-dependent effect | 6.30 | 2 µM | inactive | > 10 µM
24 | COC(=O)[C@]1(Cc2cc3ccccc3[nH]2)N=C(c2ccccc2)N(Cc2ccccc2)[C@@H]1c1ccccc1 (racemic) | 4.89 | Dose-dependent effect | 4.79 | 16.2 µM | inactive | > 10 µM
25 | CCOC(=O)[C@]1(c2ccccc2)N=C(c2ccccc2)N(Cc2ccccc2)[C@@H]1c1ccc([N+](=O)[O-])cc1 (racemic) | 5.47 | Dose-dependent effect | 6.30 | 0.537 µM | inactive | > 10 µM
26 | COC(=O)[C@]1(Cc2ccccc2)N=C(c2ccccc2)N(Cc2ccccc2)[C@@H]1c1ccccc1 (racemic) | 5.28 | Dose-dependent effect | 5.39 | 4.07 µM | inactive | > 10 µM
